Consider 24 molecules from patent publication US7074801B1, “Nitrogen-containing condensed cyclic compound having a pyrazolyl group as a substituent group and pharmaceutical composition thereof” (Eisai Co., Ltd., priority 2001, dated 2006).

In the assay the test system is STAT6. Briefly: Inhibitory test on STAT6 activation: IL-4-induced alkali phosphatase STAT6 reporter in 293 cells stably expressing the STAT6 gene and STAT6 reporter gene. It counts as cell-based. The settings on record: HEK293; Table 1; 1 ng/ml human recombinant IL-4, 16 hours, 293 cells with STAT6 reporter; read-out: Inhibitory activity IC50 (concentration at which the alkali phosphatase activity induced by IL-4 was inhibited by 50%). On the procedure: The inhibitory action of the present compound on activation of STAT6 was evaluated according to the following experiments.
1) Construction of a STAT6 Reporter Gene
An oligonucleotide of SEQ ID NO:1 in which three STAT6-binding regions on a human immunoglobulin germline E gene promoter had been linked was mixed with its complementary chain, thermally denatured and annealed, and 5′- and 3′-ends thereof were cleaved with restriction enzymes Kpn I (Code No. 1068A, Takara Shuzo) and Xba I (Code No. 1093A, Takara Shuzo) respectively, and the resulting fragment was cloned into a Kpn I/Xba I site of pUG-BGH-PLAP vector (described in Molecular Pharmacology, 49:860–873, 1996). To induce a basic transcriptional factor, a TK promoter region of herpes virus was cloned into an Xba I/Hind III (Code No. 1060A, Takara Shuzo) site of the pUG-BGH-PLAP vector. To obtain a stably expressing cell strain, a neomycin resistance gene (PGK-neo expression cassette) was integrated with an Sal I (Code No. 1080A, Takara Shuzo) of this vector. Cloning of the TK promoter and PGK-neo expression cassette was carried out according to Molecular Pharmacology, 49:860–873, 1996.
The underlined sites are a Kpn I recognition site and Xba I recognition site respectively. 2) Construction of an STAT6 Expression Vector
An oligonucleotide of SEQ ID NO:2 containing an initiation codon of STAT6 gene and an oligonucleotide of SEQ ID NO:3 containing a stop codon were used, and total RNA was prepared from human peripheral blood cells by using RNeasy Mini kit (Code No. 74104, OIAGEN). Then, cDNA was prepared by reverse transcription reaction using Takara RNA LA PCR kit (Code No. RR012A, Takara Shuzo) and then subjected to PCR reaction with primers of SEQ ID NOS:2 and 3, to amplify the STAT6 gene. • (SEQ ID NO:2) 5′-[…]-3′ The underlined site is an EcoR I recognition site. • (SEQ ID NO:3) 5′-[…]-3′ The underlined site is an Xho I recognition site.
The PCR product was digested with EcoR I (Code No. 1040A, Takara Shuzo) and Xho I (1094A, Takara Shuzo), and the digested fragment was isolated on an agarose gel. The isolated fragment was integrated into a vector fragment obtained by digesting pcDNA3.1 (+) (Code No. U790-20, Invitrogen) vector with EcoRI/Xho I.
3) Introduction of the Gene and Preparation of a Stably Expressing Cell Strain
Human fetal kidney-derived 293 cells (American Type Culture Collection), 3.0×10^5 cells, were spread on a Falcon tissue culture 6-well plate (Code No. 35-3046, Becton Dickinson) and cultured overnight. 1.5 μg of the prepared STAT6 reporter gene, 1.5 μg of the STAT6 gene and 20 μl of lipofectamine (Code No. 18324-012, GIBCO BRL) were mixed in 0.3 ml OPTI-MEM medium (Code No. 31985-070) and left at room temperature for 20 minutes. Thereafter, 1.2 ml OPTI-MEM medium was further added to the cells washed with OPTI-MEM medium not containing fetal bovine serum, and the cells were cultured for 2 hours. 1.5 ml medium containing fetal bovine serum was added thereto, and the cells were cultured for additional 19 hours. The medium was exchanged with a fresh one, and Geneticin (Code No. G-5013, SIGMA) was added at a concentration of 1 mg/ml, and the cells were cultured, and chemical-resistant cells were selected. The resulting chemical-resistant cells were floated in a medium containing 1 mg/ml Geneticin, then spread at a density of 0.5 cell/well on a 96-well microplate (Code No. 35-3072, Becton Dickinson) and cloned to give a clone expressing alkali phosphatase in response to IL-4.
4) Inhibitory Test on STAT6 Activation
The cells stably expressing the STAT6 gene and STAT6 reporter gene and expressing alkali phosphatase in response to IL-4 were spread at a density of 5000 cells/180 μl/well on a 96-well microplate (Code No. 35-3072, Becton Dickinson) and cultured overnight. […]
A general note: A reporter such as luciferase makes a cellular process visible.

Molecules are shown by their SMILES. Structures can show the parent of a compound that is named as a salt.

In the case of `c1ccc(-c2cnc3ccc(-c4c[nH]nc4-c4ccc(N5CCOCC5)cc4)cn23)nc1` [Example 539, 6-[3-(4-Morpholine-4-ylphenyl)-1H-pyrazol-4-yl]-3-(pyridin-2-yl)imidazo[1,2-a]pyridine], the IC50 was less than 0.01 µM.

With `CS(=O)(=O)c1cnc(-c2cnc3ccc(-c4c[nH]nc4-c4c(F)cccc4F)cn23)s1` [Example 549, 6-[3-(2,6-Difluorophenyl)-1H-pyrazol-4-yl]-3-(5-methylsulfonylthiazol-2-yl)imidazo[1,2-a]pyridine], the IC50 is less than 0.01 µM.

As to `CSc1nnc(-c2cnc3ccc(-c4c[nH]nc4-c4ccc(F)cc4)cn23)o1` [Example 555, 6-[3-(4-Fluorophenyl)-1H-pyrazol-4-yl]-3-(5-methylsulfanyl[1,3,4]oxadiazol-2-yl)imidazo[1,2-a]pyridine], the IC50 was less than 0.01 µM.

As to `Fc1ccc(-c2n[nH]cc2-c2ccc3ncc(-c4nnc(C5CC5)s4)n3c2)c(F)c1` [Example 556, 3-(5-Cyclopropyl[1,3,4]thiadiazol-2-yl)6-[3-(2,4-difluorophenyl)-1H-pyrazol-4-yl]imidazo[1,2-a]pyridine], the IC50 is less than 0.01 µM.

Consider `Fc1ccc(-c2n[nH]cc2-c2ccc3ncc(-c4nnc(C5CC5)o4)n3c2)c(F)c1` [Example 557, 3-(5-Cyclopropyl[1,3,4]oxadiazol-2-yl)6-[3-(2,4-difluorophenyl)-1H-pyrazol-4-yl]imidazo[1,2-a]pyridine], for which the IC50 is less than 0.01 µM.

On to `CNc1nnc(-c2cnc3ccc(-c4c[nH]nc4-c4ccc(F)cc4F)cn23)o1` [Example 561], for which the IC50 was less than 0.01 µM.

Turning to `COc1nnc(-c2cnc3ccc(-c4c[nH]nc4-c4ccc(F)cc4F)cn23)s1` [Example 562, 6-[3-(2,4-Fluorophenyl)-1H-pyrazol-4-yl]-3-(5-methoxy[1,3,4]thiadiazol-2-yl)imidazo[1,2-a]pyridine], the IC50 is less than 0.01 µM.

For `Fc1ccc(-c2n[nH]cc2-c2ccc3ncc(-c4noc(C5CC5)n4)n3c2)c(F)c1` [Example 576, 3-(5-Cyclopropyl-[1,2,4]oxadiazol-3-yl)-6-[3-(2,4-difluorophenyl)-1H-4-pyrazolyl]-imidazo[1,2-a]pyridine trihydrochloride], the IC50 was less than 0.01 µM.

Turning to `COc1ccc(-c2n[nH]cc2-c2ccc3ncc(-c4noc(C5CC5)n4)n3c2)c(F)c1` [Example 580, 3-(5-Cyclopropyl-[1,2,4]oxadiazol-3-yl)-6-[3-(2-fluoro-4-methoxyphenyl)-1H-4-pyrazolyl]-imidazo[1,2-a]pyridine trihydrochloride], the IC50 was less than 0.01 µM.

For the molecule `Fc1ccccc1-c1n[nH]cc1-c1ccc2ncc(-c3noc(C4CC4)n3)n2c1` [Example 583, 3-(5-Cyclopropyl-[1,2,4]oxadiazol-3-yl)-6-[3-(2-fluorophenyl)-1H-4-pyrazolyl]-imidazo[1,2-a]pyridine trihydrochloride], the IC50 is less than 0.01 µM.

Consider `Fc1cc(OC2CCCC2)ccc1-c1n[nH]cc1-c1ccc2ncc(-c3noc(C4CC4)n3)n2c1` [Example 584, 6-[3-(4-Cyclopentyloxy-2-fluorophenyl)-1H-4-pyrazolyl]-3-(5-cyclopropyl-[1,2,4]oxadiazol-3-yl)-imidazo[1,2-a]-pyridine trihydrochloride], for which the IC50 was less than 0.01 µM.

For the molecule `Fc1ccc(-c2n[nH]cc2-c2ccc3ncc(-c4noc(C(F)F)n4)n3c2)c(F)c1` [Example 589, 6-[3-(2,4-Difluorophenyl)-1H-4-pyrazolyl]-3-(5-difluoromethyl-[1,2,4]oxadiazol-3-yl)-imidazo[1,2-a]-pyridine trihydrochloride], the IC50 was less than 0.01 µM.

Consider `CC(C)=Cc1nc(-c2cnc3ccc(-c4c[nH]nc4-c4ccccc4F)cn23)no1` [Example 592], for which the IC50 is less than 0.01 µM.

With `O=C1CCCN1Cc1nc(-c2cnc3ccc(-c4c[nH]nc4-c4ccccc4F)cn23)no1` [Example 596, 1-(3-{6-[3-(2-Fluorophenyl)-1H-4-pyrazolyl]-imidazo[1,2-a]-pyridin-3-yl}-[1,2,4]oxadiazol-5-ylmethyl)-pyrrolidin-2-one di-trifluoroacetate], the IC50 was less than 0.01 µM.

Regarding `CN(C)Cc1nc(-c2cnc3ccc(-c4c[nH]nc4-c4ccccc4F)cn23)no1` [Example 598, (3-{6-[3-(2-Fluorophenyl)-1H-4-pyrazolyl]-imidazo[1,2-a]-pyridin-3-yl}-[1,2,4]oxadiazol-5-ylmethyl)dimethylamine tri-trifluoroacetate], the IC50 is less than 0.01 µM.

For `Fc1cccc(F)c1-c1n[nH]cc1-c1ccc2ncc(-c3noc(CCC(F)(F)F)n3)n2c1` [Example 601, 3-[5-(3,3,3-Trifluoropropyl)-[1,2,4]oxadiazol-3-yl]-6-[3-(2,6-difluorophenyl)-1H-4-pyrazolyl]-imidazo[1,2-a]pyridine], the IC50 was less than 0.01 µM.

Take `CC(C)c1nc(-c2cnc3ccc(-c4c[nH]nc4-c4ccccc4F)cn23)no1` [Example 605, 6-[3-(2-Fluorophenyl)-1H-4-pyrazolyl]-3-(5-isopropyl-[1,2,4]oxadiazol-3-yl)-imidazo[1,2-a]pyridine trihydrochloride]: the IC50 is less than 0.01 µM.

For the molecule `COc1ccc(-c2cnc3ccc(-c4c[nH]nc4-c4ccc(F)cc4)cn23)cc1F` [Example 622, 3-(3-Fluoro-4-methoxyphenyl)-6-[3-(4-fluorophenyl)-1H-4-pyrazolyl]imidazo[1,2-a]pyridine hydrochloride], the IC50 was less than 0.01 µM.

On to `O=C1CCc2cc(-c3cnc4ccc(-c5c[nH]nc5-c5ccc(F)cc5)cn34)ccc21` [Example 623, 5-{6-[3-(4-Fluorophenyl)-1H-4-pyrazolyl]imidazo[1,2-a]pyridin-3-yl}-1-indanone], for which the IC50 is less than 0.01 µM.

In the case of `N#CCCCS(=O)(=O)c1ccc(-c2cnc3ccc(-c4c[nH]nc4-c4ccc(F)cc4)cn23)s1` [Example 626, 4-[(5-{6-[3-(4-Fluorophenyl)-1H-4-pyrazolyl]imidazo[1,2-a]pyridin-3-yl}-2-thienyl)sulfonyl]butane nitrile hydrochloride], the IC50 is less than 0.01 µM.

In the case of `N#CCC[C@H](O)c1nc2ccc(-c3cnc4ccc(-c5c[nH]nc5-c5ccc(F)cc5)cn34)cc2s1` [Example 628, (4S)-4-(6-{6-[3-(4-Fluorophenyl)-1H-4-pyrazolyl]imidazo-[1,2-a]pyridin-3-yl)-1,3-benzothiazol-2-yl)-4-hydroxybutane nitrile dihydrochloride], the IC50 is less than 0.01 µM.

Regarding `Cc1csc(NC(=O)c2ccc(-c3cnc4ccc(-c5cn[nH]c5)cn34)cc2)n1` [Example 629, N1-(4-Methyl-1,3-thiazol-2-yl)-4-[6-(1H-4-pyrazolyl)-imidazo[1,2-a]pyridin-3-yl]benzamide dihydrochloride], the IC50 was less than 0.01 µM.

For the molecule `Cc1n[nH]cc1-c1ccc2ncc(-c3ccc(S(=O)(=O)N(C)c4ccc(Cl)cc4)cc3)n2c1` [Example 632, N1-(4-Chlorophenyl)-N1-methyl-4-[6-(3-methyl-1H-4-pyrazolyl)imidazo[1,2-a]pyridin-3-yl]-1-benzene sulfonamide], the IC50 lay within 0.01 to 0.1 µM.

`Cc1n[nH]cc1-c1ccc2ncc(-c3ccc(C(=O)NN4CCCCC4)c(F)c3)n2c1` [Example 644, N1-Piperidino-2-fluoro-4-[6-(3-methyl-1H-4-pyrazolyl)-imidazo[1,2-a]pyridin-3-yl] benzamide dihydrochloride]: the IC50 was less than 0.01 µM.
